The record followed here is PMC3093405, “A Motif Unique to the Human Dead-Box Protein DDX3 Is Important for Nucleic Acid Binding, ATP Hydrolysis, RNA/DNA Unwinding and HIV-1 Replication” (PLoS ONE, 2011).

One data set deals with T1, DDX3wt (Homo sapiens, UniProt O00571).
T1 construct: DDX3wt (aa 1–662), and the N-DDX3 (aa 1–427); N-terminal peptide of ~3 kDa comprising 6xHis (pTrcHisA) (N); seven additional amino acids KQGCFGG (C); made in house; host or cells: E. coli BL-21
The experiment in a line: Inhibition of DDX3wt ATPase activity. Format: biochemical. The settings on record: increasing amounts of inhibitor. The protocol: (§1) The ATPase activity was determined, as previously described, by directly monitoring [γ-^32P] ATP hydrolysis by thin-layer chromatography (TLC). ATP (3000 Ci/mmol) as tracer, plus 1 mM of cold ATP, unless otherwise stated, and nucleic acids as indicated. Samples were incubated for 5 minutes at 25°C and dotted onto TLC sheets of polyethylenimine cellulose. The products were separated by ascending chromatography with 0.5 M KH2PO4 (pH 3.4). The intensities of the radioactive bands corresponding to ATP and Pi were quantified by densitometric scanning with PhosphoImager. For the stimulation of the ATPase activity, the ssDNA oligonucleotide oligo(dT)20 or the ssRNA oligonucleotide oligo (rU)20 were used. Time-course experiments were performed under the conditions described above. Samples were taken at different time points and processed as described above.

For a further data set, the target named is T2, N-DDX3 (Homo sapiens, UniProt O00571).
T2 construct: The N-DDX3 mutant (aa 1–427) was obtained using the forward primer; N-terminal peptide of ~3 kDa comprising 6xHis (pTrcHisA) (N); seven additional amino acids KQGCFGG (C); made in house; host or cells: E. coli BL-21
The experiment in a line: Inhibition of N-DDX3 ATPase activity. Format: biochemical. The note with it: increasing amounts of inhibitor. How it is done: as §1

Data set [1] can be described thus: ATPase activity assay ([γ-32P]ATP hydrolysis, TLC), steady-state kinetics. Format: biochemical. How it is done: as §1
ATPase reactions were performed as described, in the presence of increasing amounts of nucleic acids and variable ATP concentrations. […] The relative -fold increase in the ATPase velocities 1−(vDNA/v) as a function of the nucleic acid concentrations was fitted to the hyperbolic relationship: [drawing 2] (2) where vNA is the apparent velocity of the reaction in the presence of nucleic acid, v is the velocity in its absence, KD is the apparent affinity for the nucleic acid and [NA] is the concentration of the nucleic acid substrate. The symbol KD is used, instead of Km, solely to reflect the fact that the NA is not a reactant (i.e. it is not converted into products) but only a cofactor of the reaction, without implying any assumption on the nature of the microscopic rates contributing to the KD value itself.

A short description of data set [2]: ATPase time-course (burst kinetics). Format: biochemical. How it is done: as §1
Variation of the ATPase reaction as a function of time was fitted to the mixed-exponential equation: [drawing 3] (3) where [P] is the concentration of products (pmols) at any given time point, t is time, Aburst is the burst amplitude, k burst is the rate of the exponential phase, k ss is the rate of the steady-state linear phase.

The test system of data set [3] is 18/36mer ds RNA oligonucleotide. The experiment in a line: RNA helicase assay. The data set is classed as biochemical. The text has this:
(§2) The helicase activity of DDX3wt and mutant forms was monitored by measuring the conversion of a double stranded (ds) DNA or RNA (labelled at the 5′-end of one strand with a 6-FAM fluorescent group) into single stranded (ss) nucleic acid. For the RNA helicase assay, a 18/36mer ds RNA oligonucleotide with both 3′ and 5′-protruding ss ends was used. For the DNA helicase assay, three different dsDNA substrates were used, all of them composed of the same 18mer oligonucleotide 5′-FAM labelled and three different 38 mer oligonucleotides with the sequence complementary to the 18 mer at different positions. Annealing of the 18 mer to each of the 38 mer generated the different DNA substrates shown in Fig. 5 A. A final concentration of 20 nM RNA or DNA substrate was used in the experiments, unless otherwise stated. The amounts of the different DDX3 proteins are indicated in the respective Figures.
(§3) Reactions were performed in 50 mM TrisHCl pH 7.5, 1 mM DTT, 0.2 mg/ml BSA, 5% glycerol and 1 mM ATP, 10 mM MgCl2 at 37°C degrees for 10′ and stopped by adding EDTA 50 mM pH 8. Products were separated on a native 7% PAGE […] at 5 W in TBE buffer with 0.1% SDS at 4°C for 2 hours for RNA substrates, 4 hours for DNA substrates. Substrates and products were quantified by laser scanning densitometry (Thyphoon-TRIO, GE Healthcare). For trap-assays, the enzyme and the RNA substrate were incubated on ice for 4 min, in the absence of ATP. Reactions were started by addition of ATP and a 50-fold molar excess (1 µM) of r(A)40 trap RNA oligonucleotide, followed by incubation at 37°C for the indicated times.
Variation of the amount of unwound RNA substrate as a function of time was fitted to a simple exponential equation: [drawing 4] (4) where MAX is the amount of unwound substrate extrapolated at infinite time, kuw is the apparent rate of unwinding.

Data set [4] concerns partially dsDNA substrates (18/38-mer). The experiment in a line: DNA helicase assay. Format: biochemical.
Description: as §2, §3

Another data set has as its system HelaP4 cells. Format: cell-based. The protocol: We therefore analyzed this peptide further, with respect to functional interference with HIV-1 replication. After fusion to a protein transduction domain, different amounts of the DDX3-INS1 peptide or a control peptide were transduced into HelaP4 cells 24 hours after infection with HIV-1Lai. HIV-1 infection was quantified 48–72 hours after infection by titering released HIV-1 in culture supernatants on Tzm-bl cells based on measuring the luciferase activity in the cell lysates. […] The DDX3-INS1 peptide was not toxic for the cells in the concentration range used (data not shown). Thus, binding of the peptide ligand to the DDX3 insertion, interferes with HIV-1 replication further providing evidence of an important functional role of the DDX3 insertion not only for enzymatic functions, but also for HIV-1 replication.

[5] abbreviates: relative to absence of nucleic acid.

Ends that are not written are not given here.

T2 sequence (O00571 1-427): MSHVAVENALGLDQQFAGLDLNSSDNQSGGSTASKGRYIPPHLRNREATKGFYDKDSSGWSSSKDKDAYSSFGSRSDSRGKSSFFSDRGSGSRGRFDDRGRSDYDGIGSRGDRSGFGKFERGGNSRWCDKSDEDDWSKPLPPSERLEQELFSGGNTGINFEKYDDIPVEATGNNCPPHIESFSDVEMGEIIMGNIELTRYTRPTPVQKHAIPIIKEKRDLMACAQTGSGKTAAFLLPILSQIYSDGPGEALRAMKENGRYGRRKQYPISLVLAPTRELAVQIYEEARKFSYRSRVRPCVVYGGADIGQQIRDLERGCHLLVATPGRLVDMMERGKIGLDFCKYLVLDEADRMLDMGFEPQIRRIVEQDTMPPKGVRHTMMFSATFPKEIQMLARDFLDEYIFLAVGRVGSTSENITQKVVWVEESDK
T1 sequence (O00571 whole entry, the tested form may be a part): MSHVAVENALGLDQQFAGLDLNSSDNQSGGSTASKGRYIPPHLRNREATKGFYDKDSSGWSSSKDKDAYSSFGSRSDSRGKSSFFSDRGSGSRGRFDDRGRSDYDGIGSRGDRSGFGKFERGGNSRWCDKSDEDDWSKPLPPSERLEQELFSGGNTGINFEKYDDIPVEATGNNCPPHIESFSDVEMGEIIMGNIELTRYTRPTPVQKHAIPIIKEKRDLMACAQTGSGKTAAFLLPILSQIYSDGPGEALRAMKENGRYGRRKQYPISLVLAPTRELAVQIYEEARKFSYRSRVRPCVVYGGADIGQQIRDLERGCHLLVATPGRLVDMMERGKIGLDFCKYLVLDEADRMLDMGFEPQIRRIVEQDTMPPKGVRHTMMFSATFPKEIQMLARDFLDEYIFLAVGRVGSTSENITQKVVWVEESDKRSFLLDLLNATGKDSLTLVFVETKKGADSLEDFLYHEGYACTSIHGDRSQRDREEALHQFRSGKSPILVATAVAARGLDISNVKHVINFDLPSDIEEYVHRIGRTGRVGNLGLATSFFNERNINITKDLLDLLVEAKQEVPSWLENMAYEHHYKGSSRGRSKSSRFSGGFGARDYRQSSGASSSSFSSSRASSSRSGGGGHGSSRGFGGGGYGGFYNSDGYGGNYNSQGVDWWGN

For `O=C(CN1C(=O)/C(=C/c2cccc(Br)c2)SC1=S)Nc1ccccc1O` [FE15], the “Inhibition of ATP hydrolysis” value on DDX3wt and on N-DDX3 was “inhibited” in each case.

Take “DDX3wt: recombinant full length human DDX3 (aa 1–662), N-terminal his-tagged, expressed in E. coli”: the k cat in data set [1] (+DNA, oligo(dT)20) turned out to be 0.0633 ± 0.0033 s⁻¹; in data set [1] (+RNA, oligo(rU)20), 0.0533 ± 0.0017 s⁻¹; in data set [1] (absence of nucleic acids), 0.0267 ± 0.0033 s⁻¹. Further, the “Intrinsic ability to hydrolyze ATP” value in data set [1] (absence of nucleic acid) is reported as “detectable ATPase activity”. Further, in data set [1] (setting [5]), the “Increase of catalytic efficiency (kcat/Km) by DNA” value worked out at 3.2 fold. In addition, the “Increase of catalytic efficiency (kcat/Km) by RNA” value in data set [1] (setting [5]) turned out to be 2.8 fold. Besides, the Aburst in data set [2] (+DNA, oligo(dT)20) amounted to 0.9 ± 0.1 µM; in data set [2] (+RNA, oligo(rU)20) it was 0.75 ± 0.1 µM; in data set [2] (absence of nucleic acids) it was 0.25 ± 0.05 µM. The k burst in data set [2] (+DNA, oligo(dT)20) was determined as 9.5 ± 0.8 min⁻¹; in data set [2] (+RNA, oligo(rU)20) it was 7 ± 0.8 min⁻¹; in data set [2] (absence of nucleic acids) it was 4.1 ± 0.7 min⁻¹. The k ss in data set [2] (+DNA, oligo(dT)20) worked out at 0.4 ± 0.03 min⁻¹; in data set [2] (+RNA, oligo(rU)20), 0.4 ± 0.09 min⁻¹; in data set [2] (absence of nucleic acids), 0.3 ± 0.08 min⁻¹. The “Reduction of RNA unwinding rate by addition of the trap” value in data set [3] is recorded as “about 2 fold”. The “k uw (apparent rate of RNA unwinding)” value in data set [3] (+trap, 50-fold molar excess r(A)40 ssRNA, single-turnover) is 0.05 ± 0.01 min⁻¹; in data set [3] (without trap), 0.11 ± 0.02 min⁻¹. Further, the DNA unwinding entry was “able to unwind” in data set [4] (DNA duplex with a single 5′-protruding end, 18/[5′]-38 mer); “able to unwind” in data set [4] (DNA duplex with both 5′- and 3′-protruding ssDNA ends, 18/[5′-3′]-38 mer); “not” in data set [4] (substrate with a 3′-ss DNA region, 18/[3′]-38 mer).

As to SDVPTQVGGRRRRRRRRR [DDX3-INS1], in the data set on HelaP4 cells, the “Toxicity for the cells” value was “not toxic”.
